{"source": "patent US20240024290A1", "about": "“PHARMACEUTICAL COMPOSITIONS COMPRISING CANNABINOID AGONIST” (ARTELO BIOSCIENCES LIMITED, priority 2020, published 2024)", "key": {"[1]": {"assay": "Forced degradation study of the active substance (HPLC assay area %, sample observations)", "assay_type": "physicochemical", "protocol": "HPLC Conditions • Instrument: Agilent 1100/1200 • Column: YMC Triart Phenyl, 4.6×150 mm. 3 μm particle size (ex-YMC P.N.TPH12S03-1546PTH) • Mobile Phase: A—10 mM Ammonium acetate pH 6.0 • B—Acetonitrile • Flow Rate: 1.0 ml·min-1 • Injection Volume: 5 μl • Detection: UV @ 220 nm • Column Temp: 30° C. • Post Run: 4 minutes\n• Diluent: Acetonitrile:deionised water (1:1) • Standard Solution: Make up a solution of 0.2 mg/ml. This is to be made up fresh prior to use at T=3 and T=7 days.\nAccurately weigh […] of the active substance into a 100 mL volumetric flask and dissolve in 50 mL of diluent. Dilute the resulting solution to volume with diluent and mix well.\nTable 1 below details the different study tests performed. All solution samples are prepared and stored in sealed vials and heated samples are cooled to ambient prior to sampling to prevent evaporation. Analysis took place on days 3 and 7 after stressing initiation for solutions described for Tests 1-6 and once exposure was complete for samples described in Tests 7-10. Due to the low levels of degradation observed at 7 days, Tests 3, 4 and 5 were heated to 80° C. for a further 4 days and analysed, and Test 6 was analysed after a further 6 days.\nThe photostability samples were exposed to a total of 1.92 million lux hours and an integrated near-UV energy of 374.6 Whm^−2."}, "endocannabinoid system": {"test_system": "endocannabinoid system", "conditions": "in vivo; cited from earlier work"}}, "note": "“Also recorded” adds a separate entry of the source."}
{"smiles": "CCS(=O)(=O)Nc1ccc2c(c1)nc(C(C)(C)C)n2CC1CCC(F)(F)CC1", "note": "[Compound I, N-(2-(tert-butyl)-1-((4,4-difluorocyclohexyl)methyl)-1H-benzimidazol-5-yl)ethanesulfonamide]", "values": [{"measurement": "Sample observations", "setting": "[1]; Test 1 Control (solution, ambient temperature), over study period, listed as active substance", "value": "Clear colourless solution; also recorded: No change over study period"}, {"measurement": "Assay of active substance (area %)", "setting": "[1]; Test 1 solution control, 0 days", "value": 99.40, "unit": "area %"}, {"measurement": "Assay of active substance (area %)", "setting": "[1]; Test 1 solution control, 3 days", "value": 99.42, "unit": "area %"}, {"measurement": "Assay of active substance (area %)", "setting": "[1]; Test 1 solution control, 7 days", "value": 99.30, "unit": "area %"}, {"measurement": "Assay of active substance (area %)", "setting": "[1]; Test 1 solution control, 11 days", "value": 99.39, "unit": "area %"}, {"measurement": "Sample observations", "setting": "[1]; Test 2 Solid state 100° C., over study period, listed as active substance", "value": "orange solid over study period."}, {"measurement": "Assay of active substance (area %)", "setting": "[1]; Test 2 solid state at 100° C., 3 days", "value": 99.43, "unit": "area %"}, {"measurement": "Assay of active substance (area %)", "setting": "[1]; Test 2 solid state at 100° C., 7 days", "value": 99.40, "unit": "area %"}, {"measurement": "Sample observations", "setting": "[1]; Test 3 Acid 60° C., over study period, listed as active substance", "value": "Clear colourless solution; also recorded: No change over study period"}, {"measurement": "Sample observations", "setting": "[1]; Test 3 Acid (1M, ambient), over study period, listed as active substance", "value": "No change over study period; also recorded: Clear colourless solution"}, {"measurement": "Assay of active substance (area %)", "setting": "[1]; Test 3 acid (1M) ambient temperature, 3 days", "value": 99.40, "unit": "area %"}, {"measurement": "Assay of active substance (area %)", "setting": "[1]; Test 3 acid (1M) ambient temperature, 7 days", "value": 99.41, "unit": "area %"}, {"measurement": "Assay of active substance (area %)", "setting": "[1]; Test 3 acid (1M) at 60° C. until day 7, 80° C. until day 11, 11 days", "value": 98.87, "unit": "area %"}, {"measurement": "Assay of active substance (area %)", "setting": "[1]; Test 3 acid (1M) at 60° C., 3 days", "value": 99.37, "unit": "area %"}, {"measurement": "Assay of active substance (area %)", "setting": "[1]; Test 3 acid (1M) at 60° C., 7 days", "value": 99.35, "unit": "area %"}, {"measurement": "Sample observations", "setting": "[1]; Test 4 Base 40° C. (so in the source), over study period, listed as active substance", "value": "Clear colourless solution; also recorded: No change over study period"}, {"measurement": "Sample observations", "setting": "[1]; Test 4 Base (0.5M, ambient), over study period, listed as active substance", "value": "Clear colourless solution; also recorded: No change over study period"}, {"measurement": "Assay of active substance (area %)", "setting": "[1]; Test 4 base (0.5M) ambient temperature, 3 days", "value": 99.40, "unit": "area %"}, {"measurement": "Assay of active substance (area %)", "setting": "[1]; Test 4 base (0.5M) ambient temperature, 7 days", "value": 99.37, "unit": "area %"}, {"measurement": "Assay of active substance (area %)", "setting": "[1]; Test 4 base (0.5M) at 60° C. until day 7, 80° C. until day 11, 11 days", "value": 99.16, "unit": "area %"}, {"measurement": "Assay of active substance (area %)", "setting": "[1]; Test 4 base (0.5M) at 60° C., 3 days", "value": 99.34, "unit": "area %"}, {"measurement": "Assay of active substance (area %)", "setting": "[1]; Test 4 base (0.5M) at 60° C., 7 days", "value": 99.32, "unit": "area %"}, {"measurement": "Sample observations", "setting": "[1]; Test 5 Heat 60° C. (solution), over study period, listed as active substance", "value": "Clear colourless solution; also recorded: No change over study period"}, {"measurement": "Assay of active substance (area %)", "setting": "[1]; Test 5 solution at 60° C. until day 7, 80° C. until day 11, 11 days", "value": 98.00, "unit": "area %"}, {"measurement": "Assay of active substance (area %)", "setting": "[1]; Test 5 solution at 60° C., 3 days", "value": 99.13, "unit": "area %"}, {"measurement": "Assay of active substance (area %)", "setting": "[1]; Test 5 solution at 60° C., 7 days", "value": 99.34, "unit": "area %"}, {"measurement": "Sample observations", "setting": "[1]; Test 6 Peroxide (1.5%), over study period, listed as active substance", "value": "Clear colourless solution; also recorded: No change over study period"}, {"measurement": "Assay of active substance (area %)", "setting": "[1]; Test 6 peroxide (1.5%), 3 days", "value": 98.50, "unit": "area %"}, {"measurement": "Assay of active substance (area %)", "setting": "[1]; Test 6 peroxide (1.5%), 7 days", "value": 97.75, "unit": "area %"}, {"measurement": "Assay of active substance (area %)", "setting": "[1]; Test 6 peroxide (1.5%), 13 days", "value": 96.58, "unit": "area %"}, {"measurement": "Sample observations", "setting": "[1]; Test 7 Photostability (Solution Control), listed as active substance", "value": "Clear colourless solution; also recorded: No change over study period"}, {"measurement": "Assay of active substance (area %)", "setting": "[1]; Test 7 photocontrol solution", "value": 99.40, "unit": "area %"}, {"measurement": "Assay of active substance (area %)", "setting": "[1]; Test 8 photo treated solution (1.92 million lux hours, 374.6 Whm^-2 near-UV)", "value": 74.53, "unit": "area %"}, {"measurement": "Sample observations", "setting": "[1]; Test 9 Photostability (Solid Control)", "value": "Off white solid. No change over study period."}, {"measurement": "Assay of active substance (area %)", "setting": "[1]; Test 9 photocontrol solid", "value": 99.40, "unit": "area %"}, {"measurement": "Sample observations", "setting": "[1]; Test 10 Photostability (Solid Treated), listed as active substance", "value": "orange solid over study period."}, {"measurement": "Assay of active substance (area %)", "setting": "[1]; Test 10 phototreated solid (1.92 million lux hours, 374.6 Whm^-2 near-UV)", "value": 99.31, "unit": "area %"}, {"measurement": "Forced degradation outcome", "setting": "[1]; as a solution under photostability conditions", "value": "Major degradation"}, {"measurement": "Forced degradation outcome", "setting": "[1]; peroxide conditions, 1M acid and 0.5M base extended to 80° C., solution heated to 80° C.", "value": "slight degradation"}, {"measurement": "Forced degradation outcome", "setting": "[1]; solution at room temperature, solid at 100° C., 1M acid and 0.5M base at room temperature and 60° C., solution at 60° C., photostability as a solid", "value": "stable to degradation"}, {"measurement": "Appetite stimulation", "setting": "endocannabinoid system", "value": "stimulate appetite in a dose-dependent manner"}, {"measurement": "CNS-psychoactive effects", "setting": "endocannabinoid system", "value": "does not cause CNS-psychoactive effects"}]}
